Source: ChEMBL document CHEMBL5584248, “Synthesis and biological characterization of an orally bioavailable lactate dehydrogenase-A inhibitor against pancreatic cancer” (Eur J Med Chem, 2024)
Blank lines part the entries; values can stand above or below the compound they belong to. Calls of active or inactive are those of the source. The rule behind the calls is not given here.

What was measured:
[1] = molecular target: L-lactate dehydrogenase A chain (Homo sapiens, UniProt P00338); assay: Inhibition of human LDH-A incubated for 10 mins in presence of […] by fluorescence based reader assay
[2] = molecular target: L-lactate dehydrogenase B chain (Homo sapiens, UniProt P07195); assay: Inhibition of human LDH-B incubated for 10 mins in presence of […] by fluorescence based reader assay
MIA PaCa-2 [3] = assay: Antiproliferative activity against human MIA PaCa-2 cells incubated for 48 hrs by Hoechst 33342 and SYTOX green staining based confocal imaging analysis; assay type: functional, cell-based; settings: MIA PaCa-2, 48 h
[4] = Cytotoxicity against HPNEs incubated for 48 hrs by Hoechst 33342 and SYTOX green staining based confocal imaging analysis; assay type: toxicity, cell-based; settings: human, HPNE cells
PANC-1 = assay: Antiproliferative activity against human PANC-1 cells incubated for 48 hrs by Hoechst 33342 and SYTOX green staining based confocal imaging analysis; assay type: functional, cell-based; settings: PANC-1, 48 h
[5] = Antiproliferative activity against mouse FC-1199 cells incubated for 48 hrs by Hoechst 33342 and SYTOX green staining based confocal imaging analysis; assay type: functional, cell-based; settings: FC-1199, 48 h
[6] = Oral bioavailability in CD1 mouse at 5 mg/kg; assay type: ADME, organism-based; settings: in vivo
MIA PaCa-2 [7] = assay: Reduction in lactate production in human MIA PaCa-2 cells incubated for 6 hrs by colorimetric assay; assay type: functional, cell-based; settings: dose 15-30 µM
MIA PaCa-2 [8] = assay: Reduction in intracellular lactate production in human MIA PaCa-2 cells at 15 uM incubated for 6 to 24 hrs by colorimetric assay; assay type: functional, cell-based; settings: time 6-24 hrs
MIA PaCa-2 [9] = assay: Reduction in citric acid level in human MIA PaCa-2 cells at 15 uM incubated for 24 hrs by UPLC-MS analysis; assay type: functional, cell-based
MIA PaCa-2 [10] = assay: Reduction in isocitric acid level in human MIA PaCa-2 cells at 15 uM incubated for 24 hrs by UPLC-MS analysis; assay type: functional, cell-based
MIA PaCa-2 [11] = assay: Reduction in succinic acid level in human MIA PaCa-2 cells at 15 uM incubated for 6 hrs by UPLC-MS analysis; assay type: functional, cell-based
MIA PaCa-2 [12] = assay: Reduction in pyruvate level in human MIA PaCa-2 cells at 15 uM incubated for 6 to 24 hrs by UPLC-MS analysis; assay type: functional, cell-based; settings: time 6-24 hrs
MIA PaCa-2 [13] = assay: Inhibition of basal glycolysis in human MIA PaCa-2 cells at 10 to 30 uM; assay type: functional, cell-based; settings: dose 10-30 µM
MIA PaCa-2 [14] = assay: Inhibition of compensatory glycolysis in human MIA PaCa-2 cells at 10 to 30 uM; assay type: functional, cell-based; settings: dose 10-30 µM
MIA PaCa-2 [15] = assay: Reduction in total ATP production rate in human MIA PaCa-2 cells at 15 to 30 uM incubated for 24 hrs by Seahorse assay; assay type: functional, cell-based; settings: dose 15-30 µM
MIA PaCa-2 [16] = assay: Reduction in glycolytic ATP production rate in human MIA PaCa-2 cells at 15 to 30 uM incubated for 24 hrs by Seahorse assay; assay type: functional, cell-based; settings: dose 15-30 µM
MIA PaCa-2 [17] = assay: Reduction in total ATP production in human MIA PaCa-2 cells at 15 to 30 uM incubated for 48 hrs by Celltiter-glo assay; assay type: functional, cell-based; settings: dose 15-30 µM
MIA PaCa-2 [18] = assay: Reduction in total ATP production in human MIA PaCa-2 cells at 10 uM incubated for 48 hrs by Celltiter-glo assay; assay type: functional, cell-based
MIA PaCa-2 [19] = assay: Synergistic antiproliferative activity against human MIA PaCa-2 cells at 20 uM incubated for 48 hrs in presence of phenformin by fluorescence based confocal imaging analysis; assay type: functional, cell-based
[20] = test system: Pancreatic cancer organoid; assay: Antiproliferative activity against human Pancreatic cancer organoid after 72 hrs by MTS assay; assay type: functional, tissue-based
[21] = Lipophilicity, logP of compound; assay type: physicochemical; settings: octanol/water
[22] = Thermodynamic solubility in PBS at pH 7.4; assay type: physicochemical; settings: buffer
[23] = Metabolic stability in human liver microsomes assessed as compound remaining after 10 mins; assay type: ADME, Microsome; settings: read-out: Stability
[24] = Metabolic stability in mouse liver microsomes assessed as compound remaining after 10 mins; assay type: ADME, Microsome; settings: read-out: Stability
[25] = Metabolic stability in human liver microsomes assessed as compound remaining after 20 mins; assay type: ADME, Microsome; settings: read-out: Stability
[26] = Metabolic stability in mouse liver microsomes assessed as compound remaining after 20 mins; assay type: ADME, Microsome; settings: read-out: Stability
[27] = Metabolic stability in human liver microsomes assessed as compound remaining after 30 mins; assay type: ADME, Microsome; settings: read-out: Stability
[28] = Metabolic stability in mouse liver microsomes assessed as compound remaining after 30 mins; assay type: ADME, Microsome; settings: read-out: Stability
[29] = Metabolic stability in human liver microsomes assessed as compound remaining after 60 mins; assay type: ADME, Microsome; settings: read-out: Stability
[30] = Metabolic stability in mouse liver microsomes assessed as compound remaining after 60 mins; assay type: ADME, Microsome; settings: read-out: Stability
[31] = Metabolic stability in human liver microsomes assessed as half-life; assay type: ADME, Microsome
[32] = Metabolic stability in mouse liver microsomes assessed as half-life; assay type: ADME, Microsome
[33] = Metabolic stability in human liver microsomes assessed as intrinsic clearance per mg protein; assay type: ADME, Microsome
[34] = Metabolic stability in mouse liver microsomes assessed as intrinsic clearance per mg protein; assay type: ADME, Microsome
[35] = Tmax in CD1 mouse at 5 mg/kg, po; assay type: ADME, organism-based; settings: in vivo
[36] = Cmax in CD1 mouse at 1 mg/kg, iv; assay type: ADME, organism-based; settings: in vivo
[37] = Cmax in CD1 mouse at 5 mg/kg, po; assay type: ADME, organism-based; settings: in vivo
[38] = AUC(0 to infinity) in CD1 mouse at 1 mg/kg, iv; assay type: ADME, organism-based; settings: in vivo
[39] = AUC(0 to infinity) in CD1 mouse at 5 mg/kg, po; assay type: ADME, organism-based; settings: in vivo
[40] = Half-life in CD1 mouse at 1 mg/kg, iv; assay type: ADME, organism-based; settings: in vivo
[41] = Half-life in CD1 mouse at 5 mg/kg, po; assay type: ADME, organism-based; settings: in vivo
[42] = Clearance in CD1 mouse at 1 mg/kg, iv; assay type: ADME, organism-based; settings: in vivo
[43] = Volume of distribution in CD1 mouse at 1 mg/kg, iv; assay type: ADME, organism-based; settings: in vivo
[44] = Drug metabolism in mouse assessed as metabolite 4-((4-(1-methyl-1H-imidazole-2-carbonyl)phenyl)amino)-4-oxo-2-(4-(trifluoromethyl)phenyl)butanoic acid cumulative half-life by LC-MS/MS analysis; assay type: ADME
[45] = Drug metabolism in mouse assessed as tmax of 4-((4-(1-methyl-1H-imidazole-2-carbonyl)phenyl)amino)-4-oxo-2-(4-(trifluoromethyl)phenyl)butanoic acid at 1 mg/kg, iv; assay type: ADME, organism-based; settings: in vivo
[46] = Drug metabolism in mouse assessed as tmax of 4-((4-(1-methyl-1H-imidazole-2-carbonyl)phenyl)amino)-4-oxo-2-(4-(trifluoromethyl)phenyl)butanoic acid at 5 mg/kg, po; assay type: ADME, organism-based; settings: in vivo
[47] = Drug metabolism in mouse assessed as Cmax of 4-((4-(1-methyl-1H-imidazole-2-carbonyl)phenyl)amino)-4-oxo-2-(4-(trifluoromethyl)phenyl)butanoic acid at 1 mg/kg, iv; assay type: ADME, organism-based; settings: in vivo
[48] = Drug metabolism in mouse assessed as Cmax of 4-((4-(1-methyl-1H-imidazole-2-carbonyl)phenyl)amino)-4-oxo-2-(4-(trifluoromethyl)phenyl)butanoic acid at 5 mg/kg, po; assay type: ADME, organism-based; settings: in vivo
[49] = Drug metabolism in mouse assessed as AUC(0 to infinity) of 4-((4-(1-methyl-1H-imidazole-2-carbonyl)phenyl)amino)-4-oxo-2-(4-(trifluoromethyl)phenyl)butanoic acid at 1 mg/kg, iv; assay type: ADME, organism-based; settings: in vivo
[50] = Drug metabolism in mouse assessed as AUC(0 to infinity) of 4-((4-(1-methyl-1H-imidazole-2-carbonyl)phenyl)amino)-4-oxo-2-(4-(trifluoromethyl)phenyl)butanoic acid at 5 mg/kg, po; assay type: ADME, organism-based; settings: in vivo
[51] = Drug metabolism in mouse assessed as half-life of 4-((4-(1-methyl-1H-imidazole-2-carbonyl)phenyl)amino)-4-oxo-2-(4-(trifluoromethyl)phenyl)butanoic acid at 1 mg/kg, iv; assay type: ADME, organism-based; settings: in vivo
[52] = Drug metabolism in mouse assessed as half-life of 4-((4-(1-methyl-1H-imidazole-2-carbonyl)phenyl)amino)-4-oxo-2-(4-(trifluoromethyl)phenyl)butanoic acid at 5 mg/kg, po; assay type: ADME, organism-based; settings: in vivo

L-lactate dehydrogenase B chain, sequence (P07195 whole entry): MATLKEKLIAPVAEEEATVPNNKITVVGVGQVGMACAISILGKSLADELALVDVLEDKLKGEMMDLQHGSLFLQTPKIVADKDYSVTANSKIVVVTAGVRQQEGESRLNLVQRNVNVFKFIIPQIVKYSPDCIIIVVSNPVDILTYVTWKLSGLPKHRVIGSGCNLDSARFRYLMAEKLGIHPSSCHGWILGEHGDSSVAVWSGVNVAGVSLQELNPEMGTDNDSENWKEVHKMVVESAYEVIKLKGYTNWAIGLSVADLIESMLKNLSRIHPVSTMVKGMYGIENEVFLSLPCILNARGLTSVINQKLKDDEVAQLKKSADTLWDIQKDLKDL

IC50 [1]: 29.9 µM
Structure (SMILES): Cn1ccnc1C(=O)c1ccc(NC(=O)CC(C(=O)O)c2csc(-c3ccccc3)n2)cc1 (centres undefined)

IC50 [1]: > 100 µM
IC50 [2]: > 100 µM
Structure (SMILES): O=C(O)CC(NC(=O)CCc1ccccc1)c1cccc(Cl)c1 (centres undefined)

F [6]: 33%
IC50 [20]: 32.3 µM
logP [21]: 2.47
Therm_solubility [22]: 7685 µg/mL
remaining at 10 min [23]: 95.5%
remaining at 10 min [24]: 98.6%
remaining at 20 min [25]: 94.8%
remaining at 20 min [26]: 96%
remaining at 0.5 h [27]: 90.5%
remaining at 0.5 h [28]: 98%
remaining at 1 h [29]: 75.6%
remaining at 1 h [30]: 88.4%
t1/2 [31]: > 1 h
t1/2 [32]: > 1 h
CLint [33]: < 23 µL/min/mg
CLint [34]: < 23 µL/min/mg
Tmax [35]: 0.5 h
Cmax [36]: 21.2 µM
Cmax [37]: 10.4 µM
AUC(0-inf) [38]: 10 µM·h
AUC(0-inf) [39]: 36.4 µM·h
half-life [40]: 2.9 h
half-life [41]: 2.4 h
clearance ([42]; mouse, iv, 1 mg/kg): 110 mL/min/kg
Vd [43]: 0.9 L/kg
Structure (SMILES): Cn1ccnc1C(=O)c1ccc(NC(=O)CC(C(=O)O)c2ccc(C(F)(F)F)cc2)cc1 (centres undefined)
Activity (MIA PaCa-2 [7]): Dose-Dependent Effect
Activity (MIA PaCa-2 [8]): Active
Activity (MIA PaCa-2 [9]): Active
Activity (MIA PaCa-2 [10]): Active
Activity (MIA PaCa-2 [11]): Active
Activity (MIA PaCa-2 [12]): Active
inhibition (MIA PaCa-2 [13]): Active
inhibition (MIA PaCa-2 [14]): Active
Activity (MIA PaCa-2 [15]): Active
Activity (MIA PaCa-2 [16]): Active
Activity (MIA PaCa-2 [17]): Active
Activity (MIA PaCa-2 [18]): inactive
IC50 (MIA PaCa-2 [3]): 14.1 µM
IC50 at 48 h [4]: > 50 µM
IC50 (PANC-1): 43.3 µM
IC50 [5]: 20.8 µM
Activity (MIA PaCa-2 [19]): Active

F [6]: 73%
Tmax [35]: 0.25 h
Cmax [36]: 1.02 µM
Cmax [37]: 0.48 µM
AUC(0-inf) [38]: 0.328 µM·h
AUC(0-inf) [39]: 0.551 µM·h
half-life [40]: 1.19 h
half-life [41]: 1.63 h
clearance ([42]; CD1, mouse): 110 mL/min/kg
Vd [43]: 10 L/kg
t1/2 [44]: 4.5 h
Tmax [45]: 0.5 h
Tmax [46]: 0.5 h
Cmax [47]: 1.01 µM
Cmax [48]: 9.76 µM
AUC [49]: 4.04 µM·h
AUC [50]: 25.96 µM·h
t1/2 [51]: 2.18 h
t1/2 [52]: 2.92 h
Structure (SMILES): COC(=O)C(CC(=O)Nc1ccc(C(=O)c2nccn2C)cc1)c1ccc(C(F)(F)F)cc1 (centres undefined)
IC50 (MIA PaCa-2 [3]): 25.6 µM
IC50 at 48 h [4]: 49.5 µM
IC50 (PANC-1): 23.9 µM
IC50 [5]: 12.1 µM

IC50 [1]: 66.4 µM
Structure (SMILES): COC(=O)C(CC(=O)Nc1ccc(N2CCN(C)CC2)cc1)c1ccc(C(F)(F)F)cc1 (centres undefined)

More lines, now with the values behind:

Structure (SMILES): O=C(O)CC(NC(=O)c1ccccc1Cl)c1cccc(Cl)c1 (centres undefined)
IC50 [1]: > 100 µM
IC50 [2]: > 100 µM

Structure (SMILES): COC(=O)C(CC(=O)Nc1ccc(C(=O)c2nccn2C)cc1)c1ccc(Cl)cc1 (centres undefined)
IC50 (MIA PaCa-2 [3]): 24.2 µM
IC50 at 48 h [4]: 26.5 µM
IC50 (PANC-1): > 50 µM
IC50 [5]: 23.4 µM

Structure (SMILES): COc1ccc(C(CC(=O)Nc2ccc(C(=O)c3nccn3C)cc2)C(=O)O)cc1 (centres undefined)
IC50 [1]: 54.5 µM

Structure (SMILES): Cn1ccnc1C(=O)c1ccc(NC(=O)CC(C(=O)O)c2ccc(Cl)cc2)cc1 (centres undefined)
IC50 [1]: 0.19 µM

Structure (SMILES): O=C(O)CC(NC(=O)Cc1ccc(C(F)(F)F)cc1)c1cccc(Cl)c1 (centres undefined)
IC50 [1]: > 100 µM
IC50 [2]: > 100 µM
